Data as given in PubChem BioAssay AID1199 (EPA DSSTox, 2008).
Calls of active or inactive are those of the source.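 How the source made its calls: active means a tumour-causing dose and a tumour site recorded for mice in at least one sex group; inconclusive means only government mouse studies exist and were judged inadequate; inactive means mouse studies exist but none gave tumours.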

System: mouse carcinogenicity bioassay, TD50 from CPDB
Experiment: DSSTox (CPDBAS) Carcinogenic Potency Database Summary Mouse Bioassay Results
Details: for outcome: TD50_Mouse_Note: no positive results
Method in brief: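 Chronic long-term mouse cancer bioassays from literature and NCI/NTP, compiled per sex. TD50 is the standardized carcinogenic potency, using the most positive experiment per sex-species; target sites follow author opinion.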

[1] = TD50_Mouse_Note: TD50 is harmonic mean of more than one positive test, TargetSites_Mouse_Female: liver
[2] = TargetSites_Mouse_Female: no positive results
[3] = TargetSites_Mouse_Female: ovary
[4] = TargetSites_Mouse_Female: liver

ClC(Cl)(Cl)Cl
Potency (TD50_Mouse_Note: TD50 is harmonic mean of more than one positive test, greater than ten-fold variation among TD50 values for positive res, TargetSites_Mouse_Female: adrenal gland, liver): 0.218 mmol/kg/day

Cc1cc(C(C)(C)C)c(O)c(C(C)(C)C)c1
Potency (TD50_Mouse_Note: TD50 is harmonic mean of more than one positive test, TargetSites_Mouse_Female: no positive results): 2.96 mmol/kg/day

C=CCc1ccc(OC)c(OC)c1
Potency [1]: 0.108 mmol/kg/day

Nc1cccc2ccccc12
Potency: 0.47 mmol/kg/day

CCCCOC(=O)c1ccc(O)cc1
outcome [2]: inactive; no positive results

c1ccc(N=Nc2ccccc2)cc1
outcome [2]: inactive; no positive results

C=CC1CC=CCC1 (centres undefined)
Potency [3]: 0.98 mmol/kg/day

Cc1c(N)nc(C)c2c1[nH]c1ccccc12
Potency [1]: 0.15 mmol/kg/day

C=C(Cl)CSC(=S)N(CC)CC
Potency (TD50_Mouse_Note: TD50 is harmonic mean of more than one positive test, TargetSites_Mouse_Female: mammary gland): 0.189 mmol/kg/day

O=[N+]([O-])c1cc(N(CCO)CCO)ccc1NCCO
outcome [2]: inactive; no positive results

CC(=O)NNC(C)=O
outcome [2]: inactive; no positive results

OCCO
outcome [2]: inactive; no positive results

ClC(Cl)=C(c1ccc(Cl)cc1)c1ccc(Cl)cc1
Potency [1]: 0.0393 mmol/kg/day

NC(=O)c1cccnc1
outcome [2]: inactive; no positive results

CC(=O)Nc1nnc(-c2ccc([N+](=O)[O-])o2)s1
Potency (TargetSites_Mouse_Female: stomach): 0.0265 mmol/kg/day

O=C1CN(/N=C/c2ccc([N+](=O)[O-])o2)C(=O)N1
Potency [3]: 5.88 mmol/kg/day

CCC1CO1 (centres undefined)
outcome [2]: inactive; no positive results

Nc1nc(N)c2nc(-c3ccccc3)c(N)nc2n1
Potency [1]: 0.238 mmol/kg/day

C/C=N/N(C)C=O
Potency (TD50_Mouse_Note: TD50 is harmonic mean of more than one positive test, TargetSites_Mouse_Female: clitoral gland, lung, stomach): 0.0251 mmol/kg/day

ClC1=C(Cl)[C@@]2(Cl)[C@@H]3[C@@H](Cl)[C@H](Cl)C[C@@H]3C1(Cl)C2(Cl)Cl
Potency (TD50_Mouse_Note: TD50 is harmonic mean of more than one positive test, greater than ten-fold variation among TD50 values for positive res, TargetSites_Mouse_Female: liver): 0.00334 mmol/kg/day

COP(=O)(OC)O/C(=C\Cl)c1cc(Cl)c(Cl)cc1Cl
Potency (TargetSites_Mouse_Female: no positive results - CPDB evaluation based on NCI Technical Report): 0.623 mmol/kg/day

O=c1ccc(=O)[nH][nH]1
outcome [2]: inactive; no positive results

NC(N)=S
outcome [2]: inactive

Cc1cc2ncccc2c2nc(N)n(C)c12
Potency (TD50_Mouse_Note: TD50 is harmonic mean of more than one positive test, TargetSites_Mouse_Female: large intestine, liver, stomach): 0.073 mmol/kg/day

OB(O)O
outcome [2]: inactive; no positive results

CC/C(C)=N/O
Potency [2]: 6.13 mmol/kg/day

O=CCCCC=O
outcome [2]: inactive; no positive results

C=CC
outcome [2]: inactive; no positive results

CO[C@H]1/C=C/O[C@@]2(C)Oc3c(C)c(O)c4c(O)c(c(/C=N/N5CCN(C)CC5)c(O)c4c3C2=O)NC(=O)/C(C)=C\C=C\[C@H](C)[C@H](O)[C@@H](C)[C@@H](O)[C@@H](C)[C@H](OC(C)=O)[C@@H]1C
Potency [4]: 0.0408 mmol/kg/day

CC1=C(/C=C/C(C)=C/C=C/C(C)=C/C(=O)O)C(C)(C)CCC1
outcome [2]: inactive; no positive results

Oc1ccc(OCc2ccccc2)cc1
outcome [2]: inactive; no positive results

CC(C)OC(=O)Nc1cccc(Cl)c1
outcome [2]: inactive; no positive results

Nc1ccc(-c2ccc(N)c(Cl)c2)cc1Cl
Potency (TD50_Mouse_Note: TD50 value is overestimated as upper 99% confidence limit from study with 100% tumor incidence but no lifetable, harmoni): 0.0377 mmol/kg/day

CN(C)c1ccccc1
outcome [2]: inactive; no positive results

O=S(=O)(O)c1ccc(N=Nc2c(O)ccc3cc(S(=O)(=O)O)ccc23)cc1
outcome [2]: inactive; no positive results

C1C2OC2C2C1C1CC2C2OC12 (centres undefined)
outcome [2]: inactive; no positive results

CCCc1c(OCCCCc2nn[nH]n2)ccc(C(C)=O)c1O
Potency [4]: 0.352 mmol/kg/day

CC[C@H]1OC(=O)C[C@@H](O)[C@H](C)[C@@H](O[C@@H]2O[C@H](C)[C@@H](O[C@H]3C[C@@](C)(O)[C@@H](O)[C@H](C)O3)[C@H](N(C)C)[C@H]2O)[C@@H](CC=O)C[C@@H](C)C(=O)/C=C/C(C)=C/C1CO[C@@H]1O[C@H](C)[C@@H](O)[C@@H](OC)[C@H]1OC (some centres undefined)
outcome [2]: inactive; no positive results

NNC(N)=S
outcome [2]: inactive; no positive results

COc1cc2c(c3oc4cccc(O)c4c(=O)c13)C1C=COC1O2 (centres undefined)
Potency (TD50_Mouse_Note: TD50 is harmonic mean of more than one positive test, TargetSites_Mouse_Female: vascular system): 0.0028 mmol/kg/day

Nc1ccc2ccccc2c1
Potency [1]: 0.275 mmol/kg/day

S=P(N1CC1)(N1CC1)N1CC1
Potency (TD50_Mouse_Note: positive test results only by intraperitoneal or intravenous injection, TD50 is harmonic mean of more than one positive, TargetSites_Mouse_Female: hematopoietic system): 0.00118 mmol/kg/day

CC(Oc1ccc(Cl)cc1Cl)C(=O)O (centres undefined)
outcome [2]: inactive; no positive results

NC(=S)Nc1ccccc1
outcome [2]: inactive; no positive results

CC/C(=C(\c1ccccc1)c1ccc(OCCN(C)C)cc1)c1ccccc1
Potency (TD50_Mouse_Note: TD50 is harmonic mean of more than one positive test, TargetSites_Mouse_Female: ovary): 0.00779 mmol/kg/day

CC1=NN(c2ccccc2)C(=O)C1
outcome [2]: inactive; no positive results

c1ccc(NNc2ccccc2)cc1
Potency [4]: 0.141 mmol/kg/day

Nc1ccc(Cl)cc1
outcome [2]: inactive; no positive results
Potency [2]: 0.546 mmol/kg/day
